What was measured:
[1] = test system: 7W WT APP751 CHO cells; assay: Screening of dihydropyridine compounds (Maybridge), Aβ1-40 and Aβ1-42 ELISA (Example 2); assay type: cell-based, Chinese hamster; settings: 30 μM, 24 hours (FIG. 5A, 5B)
Protocol: Dihydropyridine compounds were obtained from Maybridge (England). Each compound was dissolved in DMSO. 7W WT APP751 CHO cells overexpressing APP751 were plated into 96-well culture plates in 200 μL of culture medium. Each compound from the library was added to confluent cells to a final concentration of 30 μM. After 24 hours of treatment, culture medium was collected and dissolved 10-fold and 2-fold for measuring the level of Aβ1-40 and Aβ1-42, respectively. Aβ1-40 and Aβ1-42 were determined using commercially available ELISAs (Biosource, CA), following the recommendations of the manufacturer.

Compound: CCOC(=O)C1=C(C)NC(C)=C(C(=O)OCC)C1c1ccccc1Cl [Example 6, Diethyl 4-(2-chlorophenyl)-1,4-dihydro-2,6-dimethylpyridine-3,5-dicarboxylate]
- melting point: 120 to 121 °C

Compound: CC(=O)C1=C(C)NC(C)=C(C(C)=O)C1c1ccccc1Cl [Example 7, 4-(2-Chlorophenyl)-1,4-dihydro-2,6-dimethylpyridine-3,5-di(2-ethanone)]
- melting point: 196 to 197 °C

Compound: COC(=O)C1=C(C)NC(C)=C(C(=O)OC)C1c1ccccc1Cl [Example 8, Dimethyl 4-(2-chlorophenyl)-1,4-dihydro-2,6-dimethylpyridine-3,5-dicarboxylate]
- melting point: 188 to 189 °C

Compound: CC1=C(C(=O)OC(C)(C)C)C(c2ccccc2Cl)C(C(=O)OC(C)(C)C)=C(C)N1 [Example 9, Di-tert-butyl 4-(2-chlorophenyl)-1,4-dihydro-2,6-dimethylpyridine-3,5-dicarboxylate]
- melting point: 194 to 196 °C

Compound: COCCOC(=O)C1=C(C)NC(C)=C(C(=O)OCCOC)C1c1ccccc1Cl [Example 10, Bis(2-methoxyethyl) 4-(2-chlorophenyl)-1,4-dihydro-2,6-dimethylpyridine-3,5-dicarboxylate]
- melting point: 120 to 121 °C

Compound: CCOC(=O)C1=C(C)NC(C)=C(C(=O)OCC)C1c1ccccc1Br [Example 11, Diethyl 4-(2-bromophenyl)-1,4-dihydro-2,6-dimethylpyridine-3,5-dicarboxylate]
- melting point: 144 to 145 °C

Compound: CC1=C(C(=O)OC(C)(C)C)C(c2ccccc2F)C(C(=O)OC(C)(C)C)=C(C)N1 [Example 13, Di-tert-butyl 4-(2-fluorophenyl)-1,4-dihydro-2,6-dimethylpyridine-3,5-dicarboxylate]
- melting point: 201 to 202 °C

Compound: CC1=C(C(=O)OC(C)(C)C)C(c2ccccc2Br)C(C(=O)OC(C)(C)C)=C(C)N1 [Example 14, Di-tert-butyl 4-(2-bromophenyl)-1,4-dihydro-2,6-dimethylpyridine-3,5-dicarboxylate]
- melting point: 162 to 164 °C

Compound: CCOC(=O)C1=C(C)NC(C)=C(C(=O)OCC)C1c1ccccc1[N+](=O)[O-] [Example 14, Diethyl 1,4-dihydro-2,6-dimethyl-4-(2-nitrophenyl)pyridine-3,5-dicarboxylate]
- melting point: 120 to 121 °C

Compound: CC1=C(C(=O)OC(C)(C)C)C(c2ccccc2[N+](=O)[O-])C(C(=O)OC(C)(C)C)=C(C)N1 [Example 15, Di-tert-butyl 1,4-dihydro-2,6-dimethyl-4-(2-nitrophenyl)pyridine-3,5-dicarboxylate]
- melting point: 159 to 161 °C

Compound: C=CCOC(=O)C1=C(C)NC(C)=C(C(=O)OCC=C)C1c1ccccc1Cl [Example 16, Diallyl 4-(2-chlorophenyl)-1,4-dihydro-2,6-dimethylpyridine-3,5-dicarboxylate]
- melting point: 98 to 99 °C

Compound: COCC1=C(C(=O)OC)C(c2ccccc2Cl)C(C(=O)OC)=C(COC)N1 [Example 17, Dimethyl 4-(2-chlorophenyl)-1,4-dihydro-2,6-bis(methoxymethyl)pyridine-3,5-dicarboxylate]
- melting point: 137 to 138 °C

Compound: CCOC(=O)C1=C(C)NC(C)=C(C(=O)OCC)C1c1ccccc1I [Example 18, Diethyl 1,4-dihydro-4-(2-iodophenyl)-2,6-dimethylpyridine-3,5-dicarboxylate]
- melting point: 173 to 174.5 °C

Compound: COC(=O)C1=C(C)NC(C)=C(C(=O)OC)C1c1ccccc1Br [Example 19, Dimethyl 4-(2-bromophenyl)-1,4-dihydro-2,6-dimethylpyridine-3,5-dicarboxylate]
- melting point: 164 to 165 °C

Compound: CC1=C(C(=O)OC(C)(C)C)C(c2cccc(Cl)c2)C(C(=O)OC(C)(C)C)=C(C)N1 [Example 21, Di-tert-butyl 4-(3-chlorophenyl)-1,4-dihydro-2,6-dimethylpyridine-3,5-dicarboxylate]
- melting point: 189.5 to 190.5 °C

Compound: CCOC(=O)C1=C(C)NC(C)=C(C(=O)OCC)C1c1ccc(Cl)cc1 [Example 22, Diethyl 4-(4-chlorophenyl)-1,4-dihydro-2,6-dimethylpyridine-3,5-dicarboxylate]
- melting point: 151 to 152 °C

Compound: CC1=C(C(=O)OC(C)(C)C)C(c2ccc(Cl)cc2)C(C(=O)OC(C)(C)C)=C(C)N1 [Example 23, Di-tert-butyl 4-(4-chlorophenyl)-1,4-dihydro-2,6-dimethylpyridine-3,5-dicarboxylate]
- melting point: 191.5 to 192.5 °C

Compound: CCOC(=O)C1=C(C)NC(C)=C(C(=O)OCC)C1c1cccc(Br)c1 [Example 24, Diethyl 4-(3-bromophenyl)-1,4-dihydro-2,6-dimethylpyridine-3,5-dicarboxylate]
- melting point: 125 to 126 °C

Compound: CC1=C(C(=O)OC(C)(C)C)C(c2cccc(Br)c2)C(C(=O)OC(C)(C)C)=C(C)N1 [Example 25, Di-tert-butyl 4-(3-bromophenyl)-1,4-dihydro-2,6-dimethylpyridine-3,5-dicarboxylate]
- melting point: 195 to 196 °C

Compound: CC1=C(C(=O)OC(C)(C)C)C(c2ccc(Br)cc2)C(C(=O)OC(C)(C)C)=C(C)N1 [Example 27, Di-tert-butyl 4-(4-bromophenyl)-1,4-dihydro-2,6-dimethylpyridine-3,5-dicarboxylate]
- melting point: 206 to 207 °C

Compound: CC1=C(C(=O)OC(C)(C)C)C(c2ccccc2I)C(C(=O)OC(C)(C)C)=C(C)N1 [Example 28, Di-tert-butyl 1,4-dihydro-4-(2-iodophenyl)-2,6-dimethylpyridine-3,5-dicarboxylate]
- melting point: 184 to 185 °C

Compound: CCOC(=O)C1=C(C)NC(C)=C(C(=O)OCC)C1c1cccc(Cl)c1Cl [Example 31, Diethyl 4-(2,3-dichlorophenyl)-1,4-dihydro-2,6-dimethylpyridine-3,5-dicarboxylate]
- melting point: 125 to 126 °C

Compound: CC1=C(C(=O)OC(C)(C)C)C(c2cccc(Cl)c2Cl)C(C(=O)OC(C)(C)C)=C(C)N1 [Example 32, Di-tert-butyl 4-(2,3-dichlorophenyl)-I14-dihydro-2,6-dimethylpyridine-3,5-dicarboxylate]
- melting point: 144 to 145 °C

Compound: CCOC(=O)C1=C(C)NC(C)=C(C(=O)OCC)C1c1cc(Cl)ccc1Cl [Example 34, Diethyl 4-(2,5-dichlorophenyl)-1,4-dihydro-2,6-dimethylpyridine-3,5-dicarboxylate]
- melting point: 166.5 to 167.5 °C

Compound: CC1=C(C(=O)OC(C)(C)C)C(c2cc(Cl)ccc2Cl)C(C(=O)OC(C)(C)C)=C(C)N1 [Example 35, Di-tert-butyl 4-(2,5-dichlorophenyl)-1,4-dihydro-2,6-dimethylpyridine-3,5-dicarboxylate]
- melting point: 181 to 183 °C

Compound: CCOC(=O)C1=C(C)NC(C)=C(C(=O)OCC)C1c1c(Cl)cccc1Cl [Example 36, Diethyl 4-(2,6-dichlorophenyl)-1,4-dihydro-2,6-dimethylpyridine-3,5-dicarboxylate]
- melting point: 134 to 135 °C

Compound: CCOC(=O)C1=C(C)NC(C)=C(C(=O)OCC)C1c1ccccc1[N+](=O)[O-] [JFD 03311, diethyl 2,6-dimethyl-4-(2-nitrophenyl)-1,4-dihydropyridine-3,5-dicarboxylate]
- concentration of Aβ1-40 compared to controls [1]: significantly decreased
- concentration of total β-amyloid (Aβ1-40+Aβ1-42) compared to controls [1]: significantly decreased

Compound: CCOC(=O)C1=C(C)NC(C)=C(C(=O)OCC)C1c1ccc(F)cc1 [JFD 03318, diethyl 4-(4-fluorophenyl)-2,6-dimethyl-1,4-dihydropyridine-3,5-dicarboxylate]
- concentration of Aβ1-40 compared to controls [1]: significantly decreased
- concentration of Aβ1-42 compared to controls [1]: significantly decreased
- concentration of total β-amyloid (Aβ1-40+Aβ1-42) compared to controls [1]: significantly decreased

Compound: O=C1CC(c2ccccc2)CC(=O)N1c1ccc(Oc2ccc(Cl)cc2)cc1 [PD 00463, 1-[4-(4-chlorophenoxy)phenyl]-4-phenyldihydropyridine-2,6(1H,3H)-dione]
- concentration of Aβ1-40 compared to controls [1]: significantly decreased
- concentration of Aβ1-42 compared to controls [1]: significantly decreased
- concentration of total β-amyloid (Aβ1-40+Aβ1-42) compared to controls [1]: significantly decreased

Compound: CCOC(=O)C1=C(C)NC(C)=C(C(=O)OCC)C1c1ccc(Cl)cc1Cl [RJC 03403, diethyl 4-(2,4-dichlorophenyl)-2,6-dimethyl-1,4-dihydro-3,5-pyridinedicarboxylate]
- concentration of Aβ1-40 compared to controls [1]: significantly decreased
- concentration of Aβ1-42 compared to controls [1]: significantly decreased
- concentration of total β-amyloid (Aβ1-40+Aβ1-42) compared to controls [1]: significantly decreased

Compound: CCOC(=O)C1=C(C)NC(C)=C(C(=O)OCC)C1c1ccc(-c2ccccc2C(F)(F)F)o1 [RJC 03405, diethyl 2,6-dimethyl-4-{5-[2-(trifluoromethyl)phenyl]-2-furyl}-1,4-dihydro-3,5-pyridinedicarboxylate]
- concentration of Aβ1-40 compared to controls [1]: significantly decreased
- concentration of total β-amyloid (Aβ1-40+Aβ1-42) compared to controls [1]: significantly decreased

Compound: CCOC(=O)C1=C(C)NC(C)=C(C(=O)OCC)C1c1ccc(OC)cc1Cl [RJC 03413, diethyl 4-(2-chloro-4-methoxyphenyl)-2,6-dimethyl-1,4-dihydro-3,5-pyridinedicarboxylate]
- concentration of Aβ1-40 compared to controls [1]: significantly decreased
- concentration of total β-amyloid (Aβ1-40+Aβ1-42) compared to controls [1]: significantly decreased

Compound: COC(=O)C1=C(C)NC(C)=C(C(=O)OC)C1c1ccc(-c2ccsc2C(=O)OC)o1 [SEW 02070, dimethyl 4-{5-[2-(methoxycarbonyl)-3-thienyl]-2-furyl}-2,6-dimethyl-1,4-dihydropyridine-3,5-dicarboxylate]
- concentration of Aβ1-40 compared to controls [1]: significantly decreased
- concentration of total β-amyloid (Aβ1-40+Aβ1-42) compared to controls [1]: significantly decreased

Compound: CCOC(=O)C1=C(C)NC(C)=C(C(=O)OCC)C1c1cccc([N+](=O)[O-])c1 [XBX 00343, diethyl 2,6-dimethyl-4-(3-nitrophenyl)-1,4-dihydropyridine-3,5-dicarboxylate]
- concentration of Aβ1-40 compared to controls [1]: significantly decreased
- concentration of total β-amyloid (Aβ1-40+Aβ1-42) compared to controls [1]: significantly decreased
